The source made the active and inactive calls.
Key:
Paired box protein Pax-8 = Paired box protein Pax-8 (Homo sapiens, UniProt Q06710); assay: inhibitors of PAX8-driven TPO luciferase reporter, dose response, RMG-I cells, cherry-pick (AID 687027); type: functional, cell-based;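 also: luciferase reporter driven by Pax8 target thyroperoxidase promoter measured by SteadyGlo luminescence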
CHO = assay: cytotoxicity in TLR9-MyD88 CHO cells, dose response, cytotoxicity control for TLR9-MyD88 binding inhibitor project, cell-based, luminescence (AID 588339); type: functional, hamster; settings: Cricetulus griseus;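 also: CHO cells stably coexpressing TLR9 and MyD88 fusions from primary screen; compound exposure lasted 48 hours before viability readout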
[1] = biological target: T1, Replicative DNA helicase DnaB (Mycobacterium tuberculosis, UniProt P9WMR3); assay: DnaB intein splicing inhibitors, dose response, biochemical, cell-free fluorescence (AID 449749); type: functional
T1 sequence (P9WMR3 whole entry): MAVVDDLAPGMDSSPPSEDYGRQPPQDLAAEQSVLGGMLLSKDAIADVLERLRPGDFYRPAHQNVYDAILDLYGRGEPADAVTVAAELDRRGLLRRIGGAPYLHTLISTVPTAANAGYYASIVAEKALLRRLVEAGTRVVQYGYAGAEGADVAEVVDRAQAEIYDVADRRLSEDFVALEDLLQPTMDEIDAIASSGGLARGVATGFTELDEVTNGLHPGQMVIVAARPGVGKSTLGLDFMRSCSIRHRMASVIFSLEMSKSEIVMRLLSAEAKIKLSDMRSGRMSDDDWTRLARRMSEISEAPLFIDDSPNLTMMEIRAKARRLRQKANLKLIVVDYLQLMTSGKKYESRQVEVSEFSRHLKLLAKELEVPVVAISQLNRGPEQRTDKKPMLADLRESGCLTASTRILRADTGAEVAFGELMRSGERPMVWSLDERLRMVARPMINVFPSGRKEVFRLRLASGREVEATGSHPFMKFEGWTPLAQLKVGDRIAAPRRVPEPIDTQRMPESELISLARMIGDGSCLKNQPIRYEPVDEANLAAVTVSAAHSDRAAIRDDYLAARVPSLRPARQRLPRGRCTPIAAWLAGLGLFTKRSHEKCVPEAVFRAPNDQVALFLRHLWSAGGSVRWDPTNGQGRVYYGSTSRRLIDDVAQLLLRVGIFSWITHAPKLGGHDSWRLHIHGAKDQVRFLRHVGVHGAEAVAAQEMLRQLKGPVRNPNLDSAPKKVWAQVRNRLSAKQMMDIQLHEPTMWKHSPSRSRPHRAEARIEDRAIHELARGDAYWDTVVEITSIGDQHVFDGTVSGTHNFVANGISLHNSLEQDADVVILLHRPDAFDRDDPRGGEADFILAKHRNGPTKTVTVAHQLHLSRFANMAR

[2] = non-specific cell cytotoxicity, dose response, cytotoxicity control for PAX8 inhibitor project, plate reader, dry powder samples (AID 743021); type: functional, cell-based
[3] = inhibitors of SNCA 5'UTR-driven reporter translation, confirmation, H4 neuroglioma cells, luminescence (AID 1988); type: functional, cell-based
[4] = biological target: T2, High affinity choline transporter 1 (Homo sapiens, UniProt Q9GZV3); assay: CHT inhibitors, dose response, cell-based, 5-point CRC, membrane potential dye (AID 504840); type: functional
T2 sequence (Q9GZV3 whole entry): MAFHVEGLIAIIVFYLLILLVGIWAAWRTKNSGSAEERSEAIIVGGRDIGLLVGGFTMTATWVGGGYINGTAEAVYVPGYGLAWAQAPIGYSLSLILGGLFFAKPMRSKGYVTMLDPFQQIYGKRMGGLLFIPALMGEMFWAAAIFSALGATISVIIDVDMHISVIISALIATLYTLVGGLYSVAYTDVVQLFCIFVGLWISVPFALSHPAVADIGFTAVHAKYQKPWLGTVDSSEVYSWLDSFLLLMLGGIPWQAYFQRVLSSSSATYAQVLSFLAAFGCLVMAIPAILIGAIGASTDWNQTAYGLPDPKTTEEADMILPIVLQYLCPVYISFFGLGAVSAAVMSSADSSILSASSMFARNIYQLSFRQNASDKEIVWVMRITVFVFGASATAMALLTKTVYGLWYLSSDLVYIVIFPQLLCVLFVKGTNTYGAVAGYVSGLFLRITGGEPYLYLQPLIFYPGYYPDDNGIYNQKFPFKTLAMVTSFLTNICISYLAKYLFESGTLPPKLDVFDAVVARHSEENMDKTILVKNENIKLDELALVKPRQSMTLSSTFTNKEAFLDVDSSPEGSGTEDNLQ

[5] = nonselective inhibitors of cellular cAMP signaling, dose response, counter-screen for MC4R biased antagonist project, cell-based, TR-FRET cAMP detection (AID 602305); type: functional;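 also: U2OS cells stimulated with forskolin near its EC80 as the cAMP inducer; potency is for inhibition of forskolin-stimulated cAMP signaling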
[6] = biological target: T3, Sentrin-specific protease 7 (Homo sapiens, UniProt Q9BQF6); type: functional;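 also: Luminescence-based dose-response confirmation of ultra-high-throughput screening hits, measuring inhibition of SENP7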
T3 sequence (Q9BQF6 whole entry): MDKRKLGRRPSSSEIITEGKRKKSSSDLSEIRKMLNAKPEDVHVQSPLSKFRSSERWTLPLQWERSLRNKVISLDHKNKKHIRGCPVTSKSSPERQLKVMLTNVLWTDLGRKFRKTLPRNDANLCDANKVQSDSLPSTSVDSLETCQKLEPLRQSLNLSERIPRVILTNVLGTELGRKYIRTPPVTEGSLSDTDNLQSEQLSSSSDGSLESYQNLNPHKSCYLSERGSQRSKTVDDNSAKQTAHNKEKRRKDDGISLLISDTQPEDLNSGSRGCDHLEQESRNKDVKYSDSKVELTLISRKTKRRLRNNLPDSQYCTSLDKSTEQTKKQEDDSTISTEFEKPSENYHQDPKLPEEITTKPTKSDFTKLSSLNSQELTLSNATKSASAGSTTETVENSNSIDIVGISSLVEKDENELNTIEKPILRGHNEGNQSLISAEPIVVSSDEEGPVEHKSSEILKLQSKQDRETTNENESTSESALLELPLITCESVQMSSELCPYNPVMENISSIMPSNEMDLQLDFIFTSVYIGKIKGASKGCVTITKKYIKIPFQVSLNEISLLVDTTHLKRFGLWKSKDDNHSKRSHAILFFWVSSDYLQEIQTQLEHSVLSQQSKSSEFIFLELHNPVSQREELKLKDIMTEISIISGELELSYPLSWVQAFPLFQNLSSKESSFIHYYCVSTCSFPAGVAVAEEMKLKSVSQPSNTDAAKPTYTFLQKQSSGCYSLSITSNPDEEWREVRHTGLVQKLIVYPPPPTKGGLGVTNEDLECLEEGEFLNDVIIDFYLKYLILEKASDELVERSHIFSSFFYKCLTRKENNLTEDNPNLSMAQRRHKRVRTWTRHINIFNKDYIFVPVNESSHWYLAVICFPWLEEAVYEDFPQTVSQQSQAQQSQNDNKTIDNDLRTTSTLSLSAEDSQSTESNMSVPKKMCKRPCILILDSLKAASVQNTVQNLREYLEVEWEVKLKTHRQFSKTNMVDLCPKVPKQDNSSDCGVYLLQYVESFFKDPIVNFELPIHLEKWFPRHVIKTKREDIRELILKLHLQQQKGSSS

Sequence of Paired box protein Pax-8 (Q06710 whole entry, the tested form may be a part): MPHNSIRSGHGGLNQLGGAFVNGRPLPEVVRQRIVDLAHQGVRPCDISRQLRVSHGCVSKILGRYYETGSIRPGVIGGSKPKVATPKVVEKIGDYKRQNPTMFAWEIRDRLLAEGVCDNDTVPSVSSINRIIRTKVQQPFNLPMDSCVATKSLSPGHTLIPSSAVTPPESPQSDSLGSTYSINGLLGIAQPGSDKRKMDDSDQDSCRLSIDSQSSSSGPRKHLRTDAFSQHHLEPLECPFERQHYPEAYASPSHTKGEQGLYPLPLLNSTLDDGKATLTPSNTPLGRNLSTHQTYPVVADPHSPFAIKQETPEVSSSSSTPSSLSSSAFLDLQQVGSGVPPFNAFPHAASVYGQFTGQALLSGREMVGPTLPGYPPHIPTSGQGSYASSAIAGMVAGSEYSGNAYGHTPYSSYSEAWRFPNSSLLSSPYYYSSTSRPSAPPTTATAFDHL

CCC1CCCCN1S(=O)(=O)c1ccc(NC(=O)c2nc(S(C)(=O)=O)ncc2Cl)cc1 (stereo not given)
AC50 (Paired box protein Pax-8): 5.67 µM (active)
IC50 (CHO): 1.91 µM (active)
AC50 [1]: 1.43 µM (active)
AC50 [2]: 20.8 µM (active)
EC50 [3]: 9.69 µM (active)
IC50 [4]: 15.8 µM (active)
IC50 [5]: > 64.6 µM (inactive)

CCCC[n+]1ccn(C2=C([N-]S(=O)(=O)c3ccc(Cl)cc3)C(=O)c3ccccc3C2=O)c1
IC50 [6]: 22 µM (active)

CC(=O)c1cccc2c1N=C(c1[nH]c3ccccc3c1O)C2=O
IC50 [6]: 15.7 µM (active)
AC50 [1]: 3.1 µM (active)
